According to PubChem BioAssay (NCI):
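96-well plates; 48 h exposure; 5 concentrations. Endpoints by linear interpolation between flanking doses. Not reached: highest tested concentration assigned. Definition used: TGI = concentration required for complete inhibition of growth.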

Key:
Test in all cases: DTP human tumour cell line panel, 48 h
786-0 renal = tested on: 786-0 renal
A498 renal = tested on: A498 renal
A549 NSCLC = tested on: A549 NSCLC
ACHN renal = tested on: ACHN renal
BT-549 breast = tested on: BT-549 breast
CAKI-1 renal = tested on: CAKI-1 renal
CCRF-CEM leukemia = tested on: CCRF-CEM leukemia
COLO 205 colon = tested on: COLO 205 colon
DU-145 prostate = tested on: DU-145 prostate
EKVX NSCLC = tested on: EKVX NSCLC
HCC-2998 colon = tested on: HCC-2998 colon
HCT-116 colon = tested on: HCT-116 colon
HCT-15 colon = tested on: HCT-15 colon
HL-60(TB) leukemia = tested on: HL-60(TB) leukemia
HOP-62 NSCLC = tested on: HOP-62 NSCLC
HOP-92 NSCLC = tested on: HOP-92 NSCLC
HS 578T breast = tested on: HS 578T breast
HT29 colon = tested on: HT29 colon
IGROV1 ovarian = tested on: IGROV1 ovarian
K-562 leukemia = tested on: K-562 leukemia
KM12 colon = tested on: KM12 colon
LOX IMVI melanoma = tested on: LOX IMVI melanoma
M14 melanoma = tested on: M14 melanoma
MALME-3M melanoma = tested on: MALME-3M melanoma
MCF7 breast = tested on: MCF7 breast
MDA-MB-231 breast = tested on: MDA-MB-231 breast
MDA-MB-435 = tested on: MDA-MB-435
MDA-N = tested on: MDA-N
MOLT-4 leukemia = tested on: MOLT-4 leukemia
NCI-H23 lung = tested on: NCI-H23 lung
NCI-H460 lung = tested on: NCI-H460 lung
NCI-H522 lung = tested on: NCI-H522 lung
NCI/ADR-RES ovarian = tested on: NCI/ADR-RES ovarian
OVCAR-3 ovarian = tested on: OVCAR-3 ovarian
OVCAR-4 ovarian = tested on: OVCAR-4 ovarian
OVCAR-5 ovarian = tested on: OVCAR-5 ovarian
OVCAR-8 ovarian = tested on: OVCAR-8 ovarian
PC-3 prostate = tested on: PC-3 prostate
RPMI-8226 leukemia = tested on: RPMI-8226 leukemia
RXF 393 renal = tested on: RXF 393 renal
SF-268 CNS = tested on: SF-268 CNS
SF-295 CNS = tested on: SF-295 CNS
SF-539 CNS = tested on: SF-539 CNS
SK-MEL-2 melanoma = tested on: SK-MEL-2 melanoma
SK-MEL-28 melanoma = tested on: SK-MEL-28 melanoma
SK-MEL-5 melanoma = tested on: SK-MEL-5 melanoma
SK-OV-3 ovarian = tested on: SK-OV-3 ovarian
SNB-19 CNS = tested on: SNB-19 CNS
SNB-75 CNS = tested on: SNB-75 CNS
SR leukemia = tested on: SR leukemia
SW-620 colon = tested on: SW-620 colon
T-47D breast = tested on: T-47D breast
TK-10 renal = tested on: TK-10 renal
U251 CNS = tested on: U251 CNS
UACC-257 melanoma = tested on: UACC-257 melanoma
UACC-62 melanoma = tested on: UACC-62 melanoma
UO-31 renal = tested on: UO-31 renal

SMILES: Cc1cccc2c(N)c3cccc(C(=O)NCCNCCN)c3nc12
- TGI (786-0 renal): 16.9 µM
- TGI (A498 renal): > 55.9 µM
- TGI (A549 NSCLC): 20.4 µM
- TGI (ACHN renal): > 100 µM
- TGI (BT-549 breast): 33.3 µM
- TGI (CAKI-1 renal): 79.9 µM
- TGI (CCRF-CEM leukemia): > 100 µM
- TGI (COLO 205 colon): > 33.4 µM
- TGI (DU-145 prostate): > 72.4 µM
- TGI (EKVX NSCLC): > 94.6 µM
- TGI (HCC-2998 colon): > 40.8 µM
- TGI (HCT-116 colon): > 42.6 µM
- TGI (HCT-15 colon): > 100 µM
- TGI (HL-60(TB) leukemia): > 100 µM
- TGI (HOP-62 NSCLC): > 46.3 µM
- TGI (HOP-92 NSCLC): > 71.8 µM
- TGI (HS 578T breast): 24.6 µM
- TGI (HT29 colon): 91.2 µM
- TGI (IGROV1 ovarian): > 100 µM
- TGI (K-562 leukemia): > 100 µM
- TGI (KM12 colon): > 100 µM
- TGI (LOX IMVI melanoma): 39.9 µM
- TGI (M14 melanoma): > 100 µM
- TGI (MALME-3M melanoma): 36.2 µM
- TGI (MCF7 breast): > 100 µM
- TGI (MDA-MB-231 breast): 36.1 µM
- TGI (MDA-MB-435): > 78.8 µM
- TGI (MDA-N): 58.6 µM
- TGI (MOLT-4 leukemia): > 96.1 µM
- TGI (NCI-H23 lung): 6.21 µM
- TGI (NCI-H460 lung): 19.8 µM
- TGI (NCI-H522 lung): 1360 nM
- TGI (NCI/ADR-RES ovarian): > 100 µM
- TGI (OVCAR-3 ovarian): > 93.7 µM
- TGI (OVCAR-4 ovarian): 19.1 µM
- TGI (OVCAR-5 ovarian): > 100 µM
- TGI (OVCAR-8 ovarian): 17.8 µM
- TGI (PC-3 prostate): > 100 µM
- TGI (RPMI-8226 leukemia): > 90.1 µM
- TGI (RXF 393 renal): 36.1 µM
- TGI (SF-268 CNS): 1270 nM
- TGI (SF-295 CNS): > 100 µM
- TGI (SF-539 CNS): 22.4 µM
- TGI (SK-MEL-2 melanoma): 28.5 µM
- TGI (SK-MEL-28 melanoma): 36 µM
- TGI (SK-MEL-5 melanoma): > 58.4 µM
- TGI (SK-OV-3 ovarian): > 100 µM
- TGI (SNB-19 CNS): 33.8 µM
- TGI (SNB-75 CNS): 4.88 µM
- TGI (SR leukemia): > 100 µM
- TGI (SW-620 colon): > 100 µM
- TGI (T-47D breast): > 86.1 µM
- TGI (TK-10 renal): 95.4 µM
- TGI (U251 CNS): > 24.5 µM
- TGI (UACC-257 melanoma): 99.3 µM
- TGI (UACC-62 melanoma): 39.8 µM
- TGI (UO-31 renal): 51.5 µM
